Experimental findings from patent publication US20240166624A1, “PPARG INVERSE AGONISTS AND USES THEREOF” (Flare Therapeutics Inc., priority 2021, published 2024) are described below.

For experiment [1], the target named is T1, PPARG/RXRA LBD heterodimer (Homo sapiens, UniProt P37231).
T1 construct: His-TEV-Q203-Y477; Uniprot ID P37231-2; made in house; host or cells: E. coli
T1 sequence (P37231 203-477 isoform P37231-2): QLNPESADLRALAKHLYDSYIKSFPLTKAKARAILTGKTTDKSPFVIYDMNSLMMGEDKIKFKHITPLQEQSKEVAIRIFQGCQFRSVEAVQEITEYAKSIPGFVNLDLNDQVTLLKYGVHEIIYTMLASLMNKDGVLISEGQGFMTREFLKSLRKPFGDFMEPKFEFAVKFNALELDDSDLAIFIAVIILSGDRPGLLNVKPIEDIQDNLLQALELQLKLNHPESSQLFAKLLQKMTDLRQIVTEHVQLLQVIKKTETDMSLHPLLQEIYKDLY
T1 sequence (P19793 228-462 partner limits assumed): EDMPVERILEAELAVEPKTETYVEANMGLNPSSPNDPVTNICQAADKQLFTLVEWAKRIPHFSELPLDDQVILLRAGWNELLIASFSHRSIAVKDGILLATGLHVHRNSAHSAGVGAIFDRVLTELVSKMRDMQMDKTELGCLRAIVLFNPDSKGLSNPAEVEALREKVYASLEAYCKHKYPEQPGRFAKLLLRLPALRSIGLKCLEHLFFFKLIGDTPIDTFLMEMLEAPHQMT
In words: PPARγ-MED1 blockade assay (TR-FRET, biotinylated MED1 LxxLL peptide). It counts as biochemical. The conditions noted are these: WT PPARG LBD/WT RXRA LBD, 80 nM Rosiglitazone, 3 hours. The gist of the method: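 TR-FRET measuring biotinylated MED1 LxxLL peptide association with 2 nM each His-PPARG LBD (Q203-Y477) and Flag-RXRA LBD (E228-T462), E. coli expressed. Read after 3 h incubation; ratios normalized to DMSO (0%) and GW9662 minimum (100%) for IC50 and maximal MED1 repulsion.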

Experiment [2] deals with T2, PPARG/RXRA LBD heterodimer (Homo sapiens, UniProt P37231).
T2 construct: His-TEV-Q203-Y477; Uniprot ID P37231-2; made in house; host or cells: E. coli
In words: PPARγ-NCOR1 recruitment assay (TR-FRET, biotinylated NCOR1 ID2 peptide). It counts as biochemical. The conditions noted are these: 80 nM Rosiglitazone, 3 hours, read-out: PPARG-NCOR recruitment assay EC50. The gist of the method: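 2 nM each of E. coli-expressed PPARG LBD (Q203-Y477) and RXRA LBD (WT or S427F, E228-T462) with biotinylated NCOR1 ID2 peptide, incubated 3 h; TR-FRET read at Ex/Em 615/665. Ratios normalized to DMSO (0%) and T0070907 maximum (100%) for EC50 and maximal recruitment.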
T2 sequence (O75376 2251-2273 partner, one chain of several): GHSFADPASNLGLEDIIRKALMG

Experiment [3] deals with ANGPTL4, a PPARG target gene, in HT1197 (RXRA S427F mutation) cells. In words: Bladder cancer pharmacodynamic assay, HT1197 cell assay (qPCR of ANGPTL4). Type of experiment: cell-based. The conditions noted are these: Homo sapiens, 24 hours, 100 nM compound, relative to DMSO control. The gist of the method:
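5637 (PPARG amplified) and HT1197 (RXRA S427F) cells treated 24 h with PPARG inverse agonists. FABP4 and ANGPTL4 expression measured by qPCR, normalised to TBP, and reported relative to DMSO control by ΔΔCt.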
On the technique in general: Quantitative PCR measures a nucleic acid by following its amplification.

The term EC50 denotes the concentration needed to bring the measured effect to its halfway point. As a reminder, the inhibition is the relative decrease from the control value, in per cent. Low values mean a response near the control, high ones a response far below the control.

Consider `N#Cc1ccc(Cl)c(-c2cc(=O)c3c(F)c(-c4ccn(CC(O)CO)n4)c(F)cc3[nH]2)c1` (stereo not drawn) [Example 92, 4-chloro-3-(6-(1-(2,3-dihydroxypropyl)-1H-pyrazol-3-yl)-5,7-difluoro-4-oxo-1,4-dihydroquinolin-2-yl)benzonitrile], for which the EC50 in experiment [1] and in experiment [2] was 100 to 1000 nM each time. Besides, the inhibition at 0.1 µM in experiment [3] came out at 24%.
In the case of `CN(C)C(=O)[C@@H]1CCCN(c2c(F)cc3[nH]c(-c4cc(C#N)ccc4Cl)cc(=O)c3c2F)C1` [Example 114, (R)-1-(2-(2-chloro-5-cyanophenyl)-5,7-difluoro-4-oxo-1,4-dihydroquinolin-6-yl)-N,N-dimethylpiperidine-3-carboxamide], the EC50 in experiment [1] and in experiment [2] was 100 to 1000 nM in each case. The inhibition at 0.1 µM in experiment [3] amounted to 60%.
With `CN(C)C(=O)C1CCN(c2c(F)cc3[nH]c(-c4cc(C#N)ccc4Cl)cc(=O)c3c2F)CC1` [Example 112, 1-(2-(2-chloro-5-cyanophenyl)-5,7-difluoro-4-oxo-1,4-dihydroquinolin-6-yl)-N,N-dimethylpiperidine-4-carboxamide], the EC50 in experiment [1] and in experiment [2] was 1000 to 10000 nM throughout. Further, in experiment [3], testing at 0.1 µM gave an inhibition of 66%.
With `CNC(=O)Cc1ccc(-c2c(F)cc3[nH]c(-c4cc(C#N)ccc4Cl)cc(=O)c3c2F)cc1` [Example 80, 2-(4-(2-(2-chloro-5-cyanophenyl)-5,7-difluoro-4-oxo-1,4-dihydroquinolin-6-yl)phenyl)-N-methylacetamide], the EC50 in experiment [1] and in experiment [2] was 100 to 1000 nM throughout. Moreover, the inhibition at 0.1 µM in experiment [3] was found to be 47%.
For `N#Cc1ccc(Cl)c(-c2cc(=O)c3c(F)c(-c4ccc(C(F)F)cc4)c(F)cc3[nH]2)c1` [Example 36, 4-chloro-3-(6-(4-(difluoromethyl)phenyl)-5,7-difluoro-4-oxo-1,4-dihydroquinolin-2-yl)benzonitrile], the EC50 in experiment [1] and in experiment [2] was 10 to 100 nM each time. Further, in experiment [3], at 0.1 µM the inhibition was 65%.
With `N#Cc1ccc(Cl)c(-c2cc(=O)c3c(F)c(-c4cnn(C(F)F)c4)c(F)cc3[nH]2)c1` [Example 38, 4-chloro-3-(6-(1-(difluoromethyl)-1H-pyrazol-4-yl)-5,7-difluoro-4-oxo-1,4-dihydroquinolin-2-yl)benzonitrile], the EC50 in experiment [1] and in experiment [2] was 100 to 1000 nM in each case. Besides, in experiment [3], the inhibition at 0.1 µM was determined as 80%.
On to `CN(C)C(=O)N1CCN(c2c(F)cc3[nH]c(-c4cc(C#N)ccc4Cl)cc(=O)c3c2F)CC1` [Example 113, 4-(2-(2-chloro-5-cyanophenyl)-5,7-difluoro-4-oxo-1,4-dihydroquinolin-6-yl)-N,N-dimethylpiperazine-1-carboxamide], for which the EC50 in experiment [1] and in experiment [2] was 1000 to 10000 nM throughout. In addition, the inhibition at 0.1 µM in experiment [3] worked out at 80%.
In the case of `CN(C)C(=O)c1cc(-c2c(F)cc3[nH]c(-c4cc(C#N)ccc4Cl)cc(=O)c3c2F)cc(F)c1F` [Example 86, 5-(2-(2-chloro-5-cyanophenyl)-5,7-difluoro-4-oxo-1,4-dihydroquinolin-6-yl)-2,3-difluoro-N,N-dimethylbenzamide], the EC50 in experiment [1] and in experiment [2] was 100 to 1000 nM each time. Also, 0.1 µM produced 75% inhibition in experiment [3].
Regarding `N#Cc1ccc(Cl)c(-c2cc(=O)c3c(F)c(C4=CCNCC4)c(F)cc3[nH]2)c1` [Example 93, 4-chloro-3-(5,7-difluoro-4-oxo-6-(1,2,3,6-tetrahydropyridin-4-yl)-14-dihydroquinolin-2-yl)benzonitrile], the EC50 in experiment [1] and in experiment [2] was 1000 to 10000 nM in each case. In addition, the inhibition at 0.1 µM in experiment [3] was 48%.
On to `N#Cc1ccc(Cl)c(-c2cc(=O)c3ccccc3[nH]2)c1` [Example 13, 4-chloro-3-(4-oxo-1,4-dihydroquinolin-2-yl)benzonitrile], for which the EC50 in experiment [1] and in experiment [2] was 1000 to 10000 nM throughout. Also, the inhibition at 0.1 µM in experiment [3] worked out at 17%.
For the molecule `CN(C)C(=O)CCc1c(F)cc2[nH]c(-c3cc(C#N)ccc3Cl)cc(=O)c2c1F` [Example 84, 3-(2-(2-chloro-5-cyanophenyl)-5,7-difluoro-4-oxo-1,4-dihydroquinolin-6-yl)-N,N-dimethylpropanamide], the EC50 in experiment [1] and in experiment [2] was 1000 to 10000 nM throughout. The same molecule gave an inhibition at 0.1 µM in experiment [3] of 67%.
`N#Cc1ccc(Cl)c(-c2cc(=O)c3c(F)c(C4CCNCC4)c(F)cc3[nH]2)c1` [Example 94, 4-chloro-3-(5,7-difluoro-4-oxo-6-(piperidin-4-yl)-1,4-dihydroquinolin-2-yl)benzonitrile]: the EC50 in experiment [1] and in experiment [2] was 1000 to 10000 nM in each case. The molecule further showed an inhibition at 0.1 µM in experiment [3] of 27%.
Take `N#Cc1ccc(Cl)c(-c2cc(=O)c3c(F)c(-c4ccnc(C(F)F)c4)c(F)cc3[nH]2)c1` [Example 51, 4-chloro-3-(6-(2-(difluoromethyl)pyridin-4-yl)-5,7-difluoro-4-oxo-1,4-dihydroquinolin-2-yl)benzonitrile]: the EC50 in experiment [1] and in experiment [2] was 100 to 1000 nM each time. For the same molecule, the inhibition at 0.1 µM in experiment [3] stood at 56%.
On to `N#Cc1ccc(Cl)c(-c2cc(=O)c3c(F)c(C(F)(F)F)c(F)cc3[nH]2)c1` [Example 32, 4-chloro-3-(5,7-difluoro-4-oxo-6-(trifluoromethyl)-1,4-dihydroquinolin-2-yl)benzonitrile], for which the EC50 in experiment [1] and in experiment [2] was 100 to 1000 nM throughout. Further, the inhibition at 0.1 µM in experiment [3] stood at 31%.
`N#Cc1ccc(Cl)c(-c2cc(=O)c3c(Cl)cc(Cl)cc3[nH]2)c1` [Example 7, 4-chloro-3-(5,7-dichloro-4-oxo-1,4-dihydroquinolin-2-yl)benzonitrile]: the EC50 in experiment [1] and in experiment [2] was 100 to 1000 nM each time. Also, in experiment [3], the inhibition at 0.1 µM was 90%.
For `CN(C)C(=O)c1cc(-c2c(F)cc3[nH]c(-c4cc(C#N)ccc4Cl)cc(=O)c3c2F)ccc1F` [Example 82, 5-(2-(2-chloro-5-cyanophenyl)-5,7-difluoro-4-oxo-1,4-dihydroquinolin-6-yl)-2-fluoro-N,N-dimethylbenzamide], the EC50 in experiment [1] and in experiment [2] was 100 to 1000 nM throughout. Testing at 0.1 µM in experiment [3] gave an inhibition of 70%.
As to `N#Cc1ccc(Cl)c(-c2cc(=O)c3c(F)c(F)c(F)cc3[nH]2)c1` [Example 17, 4-chloro-3-(5,6,7-trifluoro-4-oxo-1,4-dihydroquinolin-2-yl)benzonitrile], the EC50 in experiment [1] and in experiment [2] was 1000 to 10000 nM each time. For the same molecule, at 0.1 µM the inhibition in experiment [3] was 66%.
Turning to `Cc1cnc(-c2c(F)cc3[nH]c(-c4cc(C#N)ccc4Cl)cc(=O)c3c2F)cn1` [Example 60, 4-chloro-3-(5,7-difluoro-6-(5-methylpyrazin-2-yl)-4-oxo-1,4-dihydroquinolin-2-yl)benzonitrile], the EC50 in experiment [1] and in experiment [2] was 100 to 1000 nM throughout. In addition, 0.1 µM produced 80% inhibition in experiment [3].
For `CO[C@@H]1CCN(c2c(F)cc3[nH]c(-c4cc(C#N)ccc4Cl)cc(=O)c3c2F)C1` [Example 106, (R)-4-chloro-3-(5,7-difluoro-6-(3-methoxypyrrolidin-1-yl)-4-oxo-1,4-dihydroquinolin-2-yl)benzonitrile], the EC50 in experiment [1] and in experiment [2] was 100 to 1000 nM each time. Also, the inhibition at 0.1 µM in experiment [3] turned out to be 75%.
Consider `N#Cc1ccc(Cl)c(-c2cc(=O)c3c(F)c(-c4cnc(C(F)(F)F)nc4)c(F)cc3[nH]2)c1` [Example 50, 4-chloro-3-(5,7-difluoro-4-oxo-6-(2-(trifluoromethyl)pyrimidin-5-yl)-1,4-dihydroquinolin-2-yl)benzonitrile], for which the EC50 in experiment [1] and in experiment [2] was 100 to 1000 nM throughout. For the same molecule, at 0.1 µM the inhibition in experiment [3] was 80%.
